Like-named read-outs stand apart in the source and are kept apart here.
Legend:
[1] = target: T1, GABAA receptor (rat α1β2 γ2) (Rattus norvegicus, UniProt P18508+P62813+P63138); assay: cell-based
T1 construct: expressed in transfected cells
Experimental: Doubly transfected cell lines were generated that express GABAA receptor (rat α1β2 γ2) together with a yellow fluorescent protein (YFP) Topaz-based halide sensor (46/148/152 mutant).
Doubly transfected cells were plated onto black-walled, clear-bottomed, poly-D-lysine-coated 384-well plates (Becton Dickinson Biosciences). Prior to the assay, the cell medium was removed and replaced with chloride-free plating medium (CFPM; see the composition below). After the incubation in CFPM for 3-4 hours at 37° C. in a 5% CO2 atmosphere, the medium was removed and replaced with chloride-free assay buffer (CFAB; see the composition below ), containing the final concentrations of test compounds. The cells were incubated for 15-20 minutes in the dark (to preserve fluorescence of the YFP) at room temperature (RT). Once the incubation was complete, the cell plates were transferred to the FLIPR (Molecular Devices Inc., Sunnyvale, Calif.) for the assay.
YFP was excited with 488 nm wavelength light and the fluorescence measured using a 540/60 nm bandpass emission filter. FLIPR settings were routinely adjusted so that the background fluorescence reading at the beginning of the assay was 20,000-50,000 counts/ms. After measuring a baseline readout of 10 seconds, the stimulus buffer was added to the well and signal was recorded for 2-4 more minutes. The stimulus buffer comprised CFAB, except that the sodium gluconate component was replaced with sodium iodide. Note that the addition of the iodide causes quenching of the fluorescent signal. In the majority of the experiments, the final concentration of sodium iodide in the stimulus buffer was about 5 mM.
The fluorescence response was corrected for the background fluorescence, as well as for the fluorescence changes, caused by iodide only. […] The initial analysis and data export was done using FLIPR-384 software (Version 1.25).
Microsoft Excel® was used to plot concentration-response curves and determine an EC50 value. […]

[2] = system: neuronal-like cell line NT-2 N; details: read-out: EC50 for diazepam; cited from earlier work
[3] = target: α1-containing isoforms of the GABA(A) receptor; details: read-out: EC50 for diazepam, published electrophysiological recordings; α1-containing isoforms in various expression systems; cited from earlier work
[4] = system: hippocampal granule cells; details: read-out: EC50 for diazepam; cited from earlier work

T1 sequence (P62813 28-455): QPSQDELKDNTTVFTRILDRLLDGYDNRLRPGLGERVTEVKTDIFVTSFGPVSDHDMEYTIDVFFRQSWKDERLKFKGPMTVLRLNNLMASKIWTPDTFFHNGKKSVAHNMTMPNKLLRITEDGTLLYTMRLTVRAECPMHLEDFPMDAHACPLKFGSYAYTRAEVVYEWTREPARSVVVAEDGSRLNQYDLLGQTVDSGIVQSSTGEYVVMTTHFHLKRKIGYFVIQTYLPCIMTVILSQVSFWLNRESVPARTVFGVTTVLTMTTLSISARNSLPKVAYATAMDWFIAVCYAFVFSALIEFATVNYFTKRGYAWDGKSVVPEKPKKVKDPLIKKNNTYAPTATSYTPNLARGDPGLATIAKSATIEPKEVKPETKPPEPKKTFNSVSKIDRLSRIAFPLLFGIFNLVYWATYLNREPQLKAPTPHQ
T1 sequence (P63138 25-474 limits assumed): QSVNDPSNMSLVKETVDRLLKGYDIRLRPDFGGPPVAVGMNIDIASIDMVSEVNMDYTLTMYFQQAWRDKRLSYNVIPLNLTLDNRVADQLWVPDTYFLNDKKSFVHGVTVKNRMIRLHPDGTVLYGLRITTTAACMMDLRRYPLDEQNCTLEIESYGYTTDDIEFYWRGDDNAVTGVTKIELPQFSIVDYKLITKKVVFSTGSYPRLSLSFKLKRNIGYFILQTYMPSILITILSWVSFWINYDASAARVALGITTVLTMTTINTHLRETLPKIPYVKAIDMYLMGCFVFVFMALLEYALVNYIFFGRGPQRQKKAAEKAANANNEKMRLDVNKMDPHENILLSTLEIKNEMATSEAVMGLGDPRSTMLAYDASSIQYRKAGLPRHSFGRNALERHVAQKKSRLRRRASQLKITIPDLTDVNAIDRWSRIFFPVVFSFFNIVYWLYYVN
T1 sequence (P18508 39-466): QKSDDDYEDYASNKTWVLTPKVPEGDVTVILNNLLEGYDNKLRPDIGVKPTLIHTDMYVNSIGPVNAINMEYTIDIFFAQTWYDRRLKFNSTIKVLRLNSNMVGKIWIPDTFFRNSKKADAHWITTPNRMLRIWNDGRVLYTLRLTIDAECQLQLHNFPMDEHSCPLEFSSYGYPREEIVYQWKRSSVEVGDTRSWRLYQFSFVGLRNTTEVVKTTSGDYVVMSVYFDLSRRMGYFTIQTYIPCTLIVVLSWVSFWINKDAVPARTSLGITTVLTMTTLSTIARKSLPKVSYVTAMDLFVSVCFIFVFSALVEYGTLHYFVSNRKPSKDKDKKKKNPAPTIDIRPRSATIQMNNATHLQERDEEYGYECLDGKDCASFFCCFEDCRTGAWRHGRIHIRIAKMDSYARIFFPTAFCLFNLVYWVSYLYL

Structure (SMILES): CC(=O)[C@H]1CC[C@H]2[C@@H]3CC[C@H]4C[C@H](O)CC[C@]4(C)[C@H]3CC[C@]12C [allopregnanolone]
- Effect on GABA-induced fluorescent signal ([1]; against constant GABA 0.25 μM): concentration-dependent increase

Structure (SMILES): CN1CCc2cc3c(cc2[C@H]1[C@@H]1OC(=O)c2c1ccc1c2OCO1)OCO3 [bicuculline]
- IC50 [1]: 4.7 ± 0.9 µM

Structure (SMILES): CN1C(=O)CN=C(c2ccccc2)c2cc(Cl)ccc21 [diazepam]
- EC50 [2]: 0.074 µM
- EC50 [3]: 0.053 to 0.07 µM
- EC50 [4]: 0.122 µM
- Effect on GABA-induced fluorescent signal [1]: concentration-dependent increase

Source: patent US20060257934A1 (priority 2005, published 2006)
